The numbers were not newly measured in patent US5948422A, “Oral dosage-forms containing a β-lactam antibiotic” (Yamanouchi Europe B.V., priority 1995, dated 1999), which cites them from elsewhere.

SMILES strings stand for the structures. Where a name gives a salt, the structure may show the parent alone.

The conditions of the data set: compared with free acid, other salts and ester.

Turning to `CC1(C)S[C@@H]2[C@H](NC(=O)COc3ccccc3)C(=O)N2[C@H]1C(=O)O` [potassium salt, phenoxymethylpenicillin potassium], the “bioavailability on oral administration” value is reported as “best bioavailability”.
